Patent US9012489B2, “Phenyl-3-aza-bicyclo[3.1.0]hex-3-yl-methanones and the use thereof as medicament” (Boehringer Ingelheim International GmbH, priority 2011, dated 2015)

Target: T1, GlyT1 transporter (Homo sapiens, UniProt P48067)
T1 construct: endogenously expressing the GlyT1 transporter; host or cells: SK-N-MC human neuroblastoma cells
T1 sequence (P48067 1-706): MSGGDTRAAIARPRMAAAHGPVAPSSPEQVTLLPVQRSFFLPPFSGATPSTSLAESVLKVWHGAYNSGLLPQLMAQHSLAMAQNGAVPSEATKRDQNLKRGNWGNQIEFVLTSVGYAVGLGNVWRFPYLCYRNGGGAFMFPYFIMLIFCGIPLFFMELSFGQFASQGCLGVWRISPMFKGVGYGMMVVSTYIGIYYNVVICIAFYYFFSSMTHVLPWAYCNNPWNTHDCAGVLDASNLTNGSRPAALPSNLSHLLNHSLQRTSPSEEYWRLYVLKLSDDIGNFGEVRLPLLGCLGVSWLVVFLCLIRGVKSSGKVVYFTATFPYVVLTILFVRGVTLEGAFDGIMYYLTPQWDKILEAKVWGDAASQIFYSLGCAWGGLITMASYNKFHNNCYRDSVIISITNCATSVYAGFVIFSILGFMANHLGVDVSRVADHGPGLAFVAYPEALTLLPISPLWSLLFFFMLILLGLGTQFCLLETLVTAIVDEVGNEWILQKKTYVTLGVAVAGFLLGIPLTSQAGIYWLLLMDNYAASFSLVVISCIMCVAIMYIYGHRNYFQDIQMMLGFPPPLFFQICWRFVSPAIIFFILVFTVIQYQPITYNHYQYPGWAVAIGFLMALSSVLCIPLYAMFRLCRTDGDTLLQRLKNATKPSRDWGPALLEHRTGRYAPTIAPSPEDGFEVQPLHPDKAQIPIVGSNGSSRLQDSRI
Test: GlyT1 assay: 3H-glycine uptake into SK-N-MC cells (Cytostar-T format)
Assay type: cell-based
Conditions: glycine uptake in human SK-N-MC cells endogenously expressing GlyT1; 500 nM glycine, 1% DMSO, signal recorded over 60 min
Source text: Cells expressing either endogenously the GlyT1 transporter like JAR cells (human placental choriocarcinoma cells; e.g. WO 2008/002583) or SK-N-MC cells (human neuroblastoma cells; Depoortere et al., 2005. Neuropsychopharmacology 30:1963-1985) or primary neurons or cells which have been transfected with a plasmid encoding the cDNA of a functional GlyT1 transporter and stably or transiently express GlyT1 (e.g. WO 2006/08200) can be used to monitor glycine uptake in cells. Different protocols for determination of the glycine uptake into the cells described above can be applied in order to identify and rank compounds which interfere with glycine uptake in the selected cell.
Compounds outlined in the examples below were characterized using human SK-N-MC cells (ATCC number HTB-10) endogenously expressing the GlyT1 transporter which is responsible for the uptake of glycine into these cells and the uptake of glycine into these cells is monitored using the Cytostar-T assay format (GE Healthcare, RPNQ0162) which is based on the radioactive glycine taken up by the cells and brought into proximity with the scintillant contained within the base of the plate. The radioactive decay is converted to a light signal based on the integration of the scintillation matrix into the assay plate. The uptake is recorded as kinetic and the slope of the measured counts over time is used to calculate IC50.
In detail, SK-N-MC cells are seeded into 96-well Cytostar-T assay plates at a density of 200,000 cells/well and grown for 16-18 hours to confluence in growth medium as recommended by ATCC. Before starting the assay, cells are washed once with HBSS (Hank's buffered salt solution; Sigma, H8264) cont. 5 mM alanine (referred in here as HBSS/Ala) and afterwards the following reagents are added: • 1. 80 μl/well HBSS/Ala • 2. 20 μl/well of HBSS/Ala containing 6× the concentration of compound in 6% DMSO • 3. approx. 5-10 min incubation • 4. 20 μl/well 3 μM glycine (^3H-glycine (Perkin Elmer, NET004001MC, specific activity: 52 Ci/mmol; diluted 1:1 with unlabelled glycine) in HBSS/Ala.
In the final assay, glycine concentration is 500 nM (250 nM derived from the ^3H-glycine Perkin Elmer, 250 nM unlabelled glycine), DMSO concentration is 1%.
The assay plate is immediately after addition of the ^3H-glycine placed into a Micro-Beta Counter (Perkin Elmer) and the signal is recorded over 60 min.
To calculate uptake, the slope in the linear range of the kinetics is determined using GraphPadPrism and for the different slopes at the selected concentrations IC50 are calculated by curve fitting using the software GraphPadPrism.
Maximal glycine uptake in every experiment is determined by incubation of SK-N-MC cells with substrate but without inhibitor. Unspecific uptake of glycine by the cells is determined by incubating the cells with substrate and a reference GlyT1 inhibitor e.g. 10 μM RG-1678 (Pinard et al., 2010, J. Med. Chem. 53(12):4603-14).
Compounds are diluted from 10 mM stocks and in general, for IC50 determination 8 compound concentrations are used.

Row | Structure (SMILES) | IC50
1 | C[C@@H](Oc1ccc(S(C)(=O)=O)cc1C(=O)N1CC2CC2(c2noc(C3CC3)n2)C1)C(F)(F)F (mixture of isomers) [Example 41, [1-(5-Cyclopropyl-[1,2,4]oxadiazol-3-yl)-3-aza-bicyclo[3.1.0]hex-3-yl]-[5-methanesulfonyl-2-(2,2,2-trifluoro-1-methyl-ethoxy)-phenyl]-methanone] | 6 nM
2 | C[C@@H](Oc1ccc(C#N)cc1C(=O)N1CC2CC2(c2noc(C(F)(F)F)n2)C1)C(F)(F)F (mixture of isomers) [Example 91, 4-(2,2,2-Trifluoro-1-methyl-ethoxy)-3-[1-(5-trifluoromethyl-[1,2,4]oxadiazol-3-yl)-3-aza-bicyclo[3.1.0]hexane-3-carbonyl]-benzonitrile] | 112 nM
3 | C[C@@H](Oc1ccc(S(C)(=O)=O)cc1C(=O)N1CC2CC2(c2nnc(C3CC3)o2)C1)C(F)(F)F (mixture of isomers) [Example 146, [1-(5-Cyclopropyl-[1,3,4]oxadiazol-2-yl)-3-aza-bicyclo[3.1.0]hex-3-yl]-[5-methanesulfonyl-2-(2,2,2-trifluoro-1-methyl-ethoxy)-phenyl]-methanone] | 9 nM
4 | COC1(c2nc(C34CC3CN(C(=O)c3cc(S(C)(=O)=O)ccc3O[C@@H](C)C(F)(F)F)C4)no2)CC1 (single isomer, unassigned) [Example 117, [5-Methanesulfonyl-2-(2,2,2-trifluoro-1-methyl-ethoxy)-phenyl]-{1-[5-(1-methoxy-cyclopropyl)-[1,2,4]oxadiazol-3-yl]-3-aza-bicyclo[3.1.0]hex-3-yl}-methanone] | 6 nM
5 | C[C@@H](Oc1ccc(S(C)(=O)=O)cc1C(=O)N1CC2CC2(c2coc(C3CC3)n2)C1)C(F)(F)F (mixture of isomers) [Example 81, [1-(2-Cyclopropyl-oxazol-4-yl)-3-aza-bicyclo[3.1.0]hex-3-yl]-[5-methanesulfonyl-2-((S)-2,2,2-trifluoro-1-methyl-ethoxy)-phenyl]-methanone] | 6 nM
6 | C[C@H](Oc1ccc(S(C)(=O)=O)cc1C(=O)N1CC2CC2(c2cccc(C(F)(F)F)n2)C1)C(F)(F)F (single isomer, unassigned) [Example 55, [5-Methanesulfonyl-2-(2,2,2-trifluoro-1-methyl-ethoxy)-phenyl]-[1-(6-trifluoromethyl-pyridin-2-yl)-3-aza-bicyclo[3.1.0]hex-3-yl]-methanone] | 22 nM
7 | C[C@@H](Oc1ccc(S(C)(=O)=O)cc1C(=O)N1CC2CC2(c2noc(C3(C(F)(F)F)CC3)n2)C1)C(F)(F)F (mixture of isomers) [Example 68, [5-Methanesulfonyl-2-(2,2,2-trifluoro-1-methyl-ethoxy)-phenyl]-{1-[5-(1-trifluoromethyl-cyclopropyl)-[1,2,4]oxadiazol-3-yl]-3-aza-bicyclo[3.1.0]hex-3-yl}-methanone] | 7 nM
8 | Cc1noc(C23CC2CN(C(=O)c2cc(S(C)(=O)=O)ccc2O[C@H](C)C(F)(F)F)C3)n1 (mixture of isomers) [Example 35, [5-Methanesulfonyl-2-(2,2,2-trifluoro-1-methyl-ethoxy)-phenyl]-[1-(3-methyl-[1,2,4]oxadiazol-5-yl)-3-aza-bicyclo[3.1.0]hex-3-yl]-methanone] | 101 nM
9 | C[C@@H](Oc1ccc(S(C)(=O)=O)cc1C(=O)N1CC2CC2(c2csc(C(F)(F)F)n2)C1)C(F)(F)F (single isomer, unassigned) [Example 30, [5-Methanesulfonyl-2-(2,2,2-trifluoro-1-methyl-ethoxy)-phenyl]-[1-(2-trifluoromethyl-thiazol-4-yl)-3-aza-bicyclo[3.1.0]hex-3-yl]-methanone] | 5 nM
10 | C[C@@H](Oc1ccc(S(C)(=O)=O)cc1C(=O)N1CC2CC2(c2ncc(C(F)(F)F)o2)C1)C(F)(F)F (single isomer, unassigned) [Example 129, [5-Methanesulfonyl-2-(2,2,2-trifluoro-1-methyl-ethoxy)-phenyl]-[1-(5-trifluoromethyl-oxazol-2-yl)-3-aza-bicyclo[3.1.0]hex-3-yl]-methanone] | 147 nM
11 | C[C@H](Oc1ccc(S(C)(=O)=O)cc1C(=O)N1CC2CC2(c2noc(C(F)(F)F)n2)C1)C(F)(F)F (single isomer, unassigned) [Example 3, [5-Methanesulfonyl-2-(2,2,2-trifluoro-1-methyl-ethoxy)-phenyl]-[1-(5-trifluoromethyl-[1,2,4]oxadiazol-3-yl)-3-aza-bicyclo[3.1.0]hex-3-yl]-methanone] | 1020 nM
12 | C[C@@H](Oc1ccc(S(C)(=O)=O)cc1C(=O)N1CC2CC2(c2nccc(C(F)(F)F)n2)C1)C(F)(F)F (mixture of isomers) [Example 72, [5-Methanesulfonyl-2-(2,2,2-trifluoro-1-methyl-ethoxy)-phenyl]-[1-(4-trifluoromethyl-pyrimidin-2-yl)-3-aza-bicyclo[3.1.0]hex-3-yl]-methanone] | 17 nM
13 | C[C@@H](Oc1ccc(S(C)(=O)=O)cc1C(=O)N1CC2CC2(c2noc(C3(C)CC3)n2)C1)C(F)(F)F (mixture of isomers) [Example 135, [5-Methanesulfonyl-2-(2,2,2-trifluoro-1-methyl-ethoxy)-phenyl]-{1-[5-(1-methyl-cyclopropyl)-[1,2,4]oxadiazol-3-yl]-3-aza-bicyclo[3.1.0]hex-3-yl}-methanone] | 7 nM
14 | CC(C)COc1ccc(S(C)(=O)=O)cc1C(=O)N1CC2CC2(c2noc(C(F)(F)F)n2)C1 (racemic) [Example 95, (2-Isobutoxy-5-methxnesulfonyl-phenyl)-[1-(5-trifluoromethyl-[1,2,4]oxadiazol-3-yl)-3-aza-bicyclo[3.10]hex-3-yl]-methanone] | 131 nM
15 | C[C@@H](Oc1ccc(S(C)(=O)=O)cc1C(=O)N1CC2CC2(c2nc(C(F)(F)F)no2)C1)C(F)(F)F (mixture of isomers) [Example 37, [5-Methanesulfonyl-2-(2,2,2-trifluoro-1-methyl-ethoxy)-phenyl]-[1-(3-trifluoromethyl-[1,2,4]oxadiazol-5-yl)-3-aza-bicyclo[3.1.0]hex-3-yl]-methanone] | 34 nM
16 | C[C@H](Oc1ccc(S(C)(=O)=O)cc1C(=O)N1CC2CC2(c2noc(C(F)(F)F)n2)C1)C(F)(F)F (mixture of isomers) [Example 1, [5-Methanesulfonyl-2-(2,2,2-trifluoro-1-methyl-ethoxy)-phenyl]-[1-(5-trifluoromethyl-[1,2,4]oxadiazol-3-yl)-3-aza-bicyclo[3.1.0]hex-3-yl]-methanone] | 39 nM
17 | C[C@H](Oc1ccc(S(C)(=O)=O)cc1C(=O)N1CC2CC2(c2ncc(C(F)(F)F)o2)C1)C(F)(F)F (mixture of isomers) [Example 131, [5-Methanesulfonyl-2-(2,2,2-trifluoro-1-methyl-ethoxy)-phenyl]-[1-(5-trifluoromethyl-oxazol-2-yl)-3-aza-bicyclo[3.1.0]hex-3-yl]-methanone] | 19 nM
18 | C[C@@H](Oc1ccc(S(C)(=O)=O)cc1C(=O)N1CC2CC2(c2ncc(C(F)(F)F)o2)C1)C(F)(F)F (single isomer, unassigned) [Example 130, [5-Methanesulfonyl-2-(2,2,2-trifluoro-1-methyl-ethoxy)-phenyl]-[1-(5-trifluoromethyl-oxazol-2-yl)-3-aza-bicyclo[3.1.0]hex-3-yl]-methanone] | 3 nM
